In ChEMBL document CHEMBL3639170, “Carboxy isatin hydrazones and their esters as Shp2 inhibitors” (2014):
pIC50: −log10 of the molar value.

Molecular target: T1, Tyrosine-protein phosphatase non-receptor type 11 (Homo sapiens, UniProt Q06124)
T1 sequence (Q06124 whole entry): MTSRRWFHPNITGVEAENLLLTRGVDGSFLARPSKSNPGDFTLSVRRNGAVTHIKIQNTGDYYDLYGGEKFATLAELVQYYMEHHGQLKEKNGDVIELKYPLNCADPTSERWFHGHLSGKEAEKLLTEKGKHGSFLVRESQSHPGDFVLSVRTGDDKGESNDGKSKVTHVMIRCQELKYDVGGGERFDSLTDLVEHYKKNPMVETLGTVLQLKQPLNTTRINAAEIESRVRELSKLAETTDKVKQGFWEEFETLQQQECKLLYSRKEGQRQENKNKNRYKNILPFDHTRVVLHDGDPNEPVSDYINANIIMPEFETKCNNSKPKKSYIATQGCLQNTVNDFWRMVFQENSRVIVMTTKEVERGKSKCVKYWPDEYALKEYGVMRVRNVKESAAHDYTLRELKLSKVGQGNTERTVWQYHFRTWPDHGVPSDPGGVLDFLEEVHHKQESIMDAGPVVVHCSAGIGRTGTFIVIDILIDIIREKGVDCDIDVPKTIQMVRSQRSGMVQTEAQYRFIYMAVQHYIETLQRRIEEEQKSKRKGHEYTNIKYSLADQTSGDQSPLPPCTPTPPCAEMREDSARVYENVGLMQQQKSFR
Experiment: Inhibition Assay: In vitro Shp2 PTP activity inhibition assay for determination of IC50 was performed with a recombinant GST-Shp2 PTP domain protein using 6,8-difluoro-4-methylumbelliferyl phosphate (DiFMUP, Invitrogen) as the substrate similar to that described previously (Chen, et al., Discovery of a novel shp2 protein tyrosine phosphatase inhibitor. Mol Pharmacol 2006; 70:562-70).

Work on `O=C(O)C(O)CC(=O)N1CCc2cc(S(=O)(=O)N3CCN(c4cccc(Cl)c4)CC3)ccc21` (stereo unspecified) yielded a pIC50 of 5.09.
